Read-outs that look alike come from different tables or passages of the source.
Legend:
[1] = test system: imiquimod-induced psoriasis; experiment: In vivo pharmacodynamic study in imiquimod (IMQ)-induced psoriasis model in mice; set-up: species or system C57BL/6 mice; settings: for Clinical scores (Mean ± SEM, n = 8): 75 mg/kg
Protocol: 6- to 8-week old female C57BL/6 mice were selected, depilated on the backs, and sensitized two days later except for the sham operation group. On the day of sensitization, the mice were randomly divided into the following 6 groups (8 mice per group). Group I was a sham operation group; Group II was a vehicle control group and PBS was administered; Group III was a positive control group and 5 mg/kg methotrexate was administered; Groups IV, V and VI were ip treatment group, ig treatment group, and topical treatment group of the compound of Example 1, and 75 mg/kg of the compound of Example 1 was administered via intraperitoneal injection, intragastric administration, and dorsal application, respectively. Administration was started on the day of sensitization, once daily for Group III and twice daily for Groups IV to VI. On the day of sensitization, the mice in Groups II to VI were given 60 to 80 mg of imiquimod cream (5%) on the dorsal skin for 4 consecutive days. (Please refer to Bouchaud, G., et al., Epidermal IL-15Ralpha acts as an endogenous antagonist of psoriasiform inflammation in mouse and man. J. Exp. Med., 2013. 210(10): p. 2105-17.)
The mice were weighed daily from the day of sensitization, and the skin scales, induration, and erythema were observed and scored according to a four-grade scoring method: 0 point, no disease; 1 point, mild; 2 points, moderate; 3 points, severe; and 4 points, very severe. (Please refer to Qin, S., et al., Endogenous n-3 polyunsaturated fatty acids protect against imiquimod-induced psoriasis-like inflammation via the IL-17/IL-23 axis. Mol Med Rep, 2014. 9(6): p. 2097-104.)

[2] = Pharmacokinetic evaluation in mice after single IV and PO administration; type: in vivo; set-up: AUC(0-t) / AUC(0-inf): concentration or dose not given beside the values; settings: Balb/c mice, plasma; for MRT inf: read-out: MRT0-inf; for MRT last: read-out: MRT0-last
Protocol: Balb/c mice (female, 15 to 30 g, 7- to 9-week old, Shanghai Lingchang) were used to test in vivo pharmacokinetics of compounds. The experimental method was as follows.
The pharmacokinetic characteristics of the compounds were tested by standard protocols after the compounds were administered to rodents by intravenous injection and oral administration. In the experiment, candidate compounds were formulated into clear solutions and administered to mice by a single intravenous injection and a single oral administration. The vehicle for intravenous injection (IV) was a mixed solvent of 5% of DMSO and 95% of 10% Cremophor EL, and the vehicle for oral administration (PO) was a mixed solvent of 1% tween 80, 9% PEG400 and 90% water. Whole blood samples within 48 hours were collected, and centrifuged at 3000 g at 4° C. for 15 minutes. The supernatant was separated to obtain the plasma sample, to which an acetonitrile solution containing an internal standard was added to precipitate the proteins, and the volume of the acetonitrile solution was 20 times that of the plasma sample. The supernatant was obtained by centrifugation, an equal volume of water was added thereto, and the mixture was centrifuged again to get the supernatant for sample injection. Plasma concentrations were quantitatively analyzed by an LC-MS/MS analytical method, and pharmacokinetic parameters, such as peak concentration, peak time, clearance rate, half-life, area under the concentration-time curve, and bioavailability, were calculated.
Of these, “10% Cremophor EL” referred to a deionized aqueous solution of Cremophor EL with a volume concentration of 10%. For example, taking the formulation of a 100 ml solution as an example, 10 ml Cremophor EL was taken and deionized water was added thereto, the mixture was well stirred, and then deionized water was added until the total volume was 100 ml. “Mixed solvent of 5% of DMSO and 95% of 10% Cremophor EL” referred to a mixed solvent comprised of DMSO and 10% Cremophor EL, in which […], and 10% Cremophor EL accounted for 95% of the volume of the mixed solvent. “Mixed solvent of 1% tween 80, 9% PEG400 and 90% water” meant that the volumes of tween 80, PEG400 and water accounted for 1%, 9% and 90% of the volume of the mixed solvent, respectively.

## CCS(=O)(=O)c1ccc(CNC(=O)c2cc3c(s2)C(C(C)C)N(C[C@H]2CC[C@H](C(F)(F)F)CC2)C3)nc1 (single isomer, unassigned) [Example 1]
[1]; 75 mg/kg by intraperitoneal injection, intragastric administration and dorsal application, FIG. 5
  effect on reducing the clinical scores compared with 5 mg/kg of methotrexate: equivalent
[1]; 75 mg/kg by intraperitoneal injection, intragastric administration and dorsal application, p<0.01, FIG. 5
  effect on the clinical scores (skin scales, induration): reduce the clinical scores significantly
[1]; ig, Day 1
  Clinical scores (Mean ± SEM, n = 8): 0 ± 0
[1]; ig, Day 2
  Clinical scores (Mean ± SEM, n = 8): 0.31 ± 0.13
[1]; ig, Day 3
  Clinical scores (Mean ± SEM, n = 8): 0.50 ± 0.19
[1]; ig, Day 4
  Clinical scores (Mean ± SEM, n = 8): 1.29 ± 0.21
[1]; ig, Day 5
  Clinical scores (Mean ± SEM, n = 8): 1.64 ± 0.18
[1]; ip, Day 1
  Clinical scores (Mean ± SEM, n = 8): 0 ± 0
[1]; ip, Day 2
  Clinical scores (Mean ± SEM, n = 8): 0.25 ± 0.13
[1]; ip, Day 3
  Clinical scores (Mean ± SEM, n = 8): 0.50 ± 0.16
[1]; ip, Day 4
  Clinical scores (Mean ± SEM, n = 8): 1.25 ± 0.19
[1]; ip, Day 5
  Clinical scores (Mean ± SEM, n = 8): 1.81 ± 0.25
[1]; topical, Day 1
  Clinical scores (Mean ± SEM, n = 8): 0 ± 0
[1]; topical, Day 2
  Clinical scores (Mean ± SEM, n = 8): 0.25 ± 0.13
[1]; topical, Day 3
  Clinical scores (Mean ± SEM, n = 8): 0.44 ± 0.15
[1]; topical, Day 4
  Clinical scores (Mean ± SEM, n = 8): 0.94 ± 0.24
[1]; topical, Day 5
  Clinical scores (Mean ± SEM, n = 8): 1.43 ± 0.20
[2]; IV
  AUCExtra: 6.28%
  AUMCExtra: 27.8%
  Tlast: 24.0 h
[2]; PO
  AUCExtra: 12.1%
  AUMCExtra: 41.3%
  Tlast: 24.0 h
[2]; female, mouse, IV
  AUC(0-inf): 3.92 µM·h
  AUC(0-t): 3.67 µM·h
  C0: 955 nM
  clearance: 7.62 mL/min/kg
  half-life: 6.84 h
  MRT inf: 7.66 h
  MRT last: 5.91 h
[2]; female, mouse, IV, read-out: Vdss
  Vd: 3.5 L/kg
[2]; female, mouse, PO
  AUC(0-inf): 35.1 µM·h
  AUC(0-t): 30.9 µM·h
  Cmax: 3520 nM
  Tmax: 1 h
  bioavailability: 89.7%
  half-life: 8.7 h
  MRT inf: 10.8 h
  MRT last: 7.19 h

Source: patent publication US11466024B2, “Bicylic compound acting as an inhibitor” (CHIA TAI TIANQING PHARMACEUTICAL GROUP CO., LTD., priority 2017, dated 2022)
